According to patent US10618918B2, “Substituted boronic acids as antimicrobials” (priority 2015, dated 2020):
pKi: −log10 of the molar value. Like-named read-outs stand apart in the source and are kept apart here.

Tests used:
KP1004 KPC-2 [1] = test: Biapenem potentiation (MPC@1), strain KP1004 KPC-2; type: cell-based; conditions: minimum BLI concentration inhibiting growth with biapenem 1 μg/mL; tested up to 40 μg/mL
Method: (§1) Biapenem was present in the test medium at 1 μg/mL. […] Table 3 summarizes the BLI potency of biapenem potentiation (MPC@1) for two strains overexpressing class A (KPC) and class D (OXA-48) carbapenemases. Biapenem MIC for each strain is also shown.

KP1086 OXA-48 = test: Biapenem potentiation (MPC@1), strain KP1086 OXA-48; type: cell-based; conditions: minimum BLI concentration inhibiting growth with biapenem 1 μg/mL; tested up to 40 μg/mL
Method: as §1

AB1053 OXA-72 = test: Meropenem potentiation (MPC@8), strain AB1053 OXA-72; type: cell-based, Acinetobacter baumannii; conditions: minimum BLI concentration inhibiting growth with meropenem 8 μg/mL; tested up to 20 μg/mL
AB1054 OXA-23 = test: Meropenem potentiation (MPC@8), strain AB1054 OXA-23; type: cell-based, Acinetobacter baumannii; conditions: minimum BLI concentration inhibiting growth with meropenem 8 μg/mL; tested up to 20 μg/mL
[2] = target: T1, purified class A, C and D enzymes (β-lactamases) (Acinetobacter baumannii, UniProt Q9L4P2); test: biochemical; type: biochemical; conditions: purified OXA-23; nitrocefin (NCF) as reporter substrate
T1 construct: rows headed: Ki (OXA-23, NCF), uM; other: purified OXA-23; nitrocefin (NCF) as reporter substrate
T1 sequence (Q9L4P2 whole entry): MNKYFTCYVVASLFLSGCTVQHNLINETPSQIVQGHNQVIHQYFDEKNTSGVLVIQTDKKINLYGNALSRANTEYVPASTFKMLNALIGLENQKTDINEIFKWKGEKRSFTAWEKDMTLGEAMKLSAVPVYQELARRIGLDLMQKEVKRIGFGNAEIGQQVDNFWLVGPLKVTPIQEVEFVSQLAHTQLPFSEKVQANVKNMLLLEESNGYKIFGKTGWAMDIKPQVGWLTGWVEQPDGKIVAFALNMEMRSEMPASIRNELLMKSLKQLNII

[3] = target: purified class A, C and D enzymes (β-lactamases) (Enterobacter cloacae, UniProt P05364); test: biochemical; type: biochemical
purified class A, C and D enzymes (β-lactamases) (Enterobacter cloacae, UniProt P05364), sequence (P05364 21-381): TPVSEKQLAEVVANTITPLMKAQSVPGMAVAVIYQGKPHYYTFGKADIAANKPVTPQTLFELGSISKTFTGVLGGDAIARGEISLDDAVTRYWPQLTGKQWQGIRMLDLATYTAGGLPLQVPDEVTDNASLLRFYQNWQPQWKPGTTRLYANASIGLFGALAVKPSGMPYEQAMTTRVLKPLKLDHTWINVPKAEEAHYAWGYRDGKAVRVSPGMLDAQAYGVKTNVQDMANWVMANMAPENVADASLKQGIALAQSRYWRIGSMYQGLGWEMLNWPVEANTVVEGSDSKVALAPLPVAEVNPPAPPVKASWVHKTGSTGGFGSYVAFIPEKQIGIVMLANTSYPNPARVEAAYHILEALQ

[4] = target: purified class A, C and D enzymes (β-lactamases) (Escherichia coli, UniProt Q9L5C7); test: biochemical; type: biochemical; conditions: purified CTX-M-14; nitrocefin (NCF) as reporter substrate
purified class A, C and D enzymes (β-lactamases) (Escherichia coli, UniProt Q9L5C7), sequence (Q9L5C7 entry or part of it): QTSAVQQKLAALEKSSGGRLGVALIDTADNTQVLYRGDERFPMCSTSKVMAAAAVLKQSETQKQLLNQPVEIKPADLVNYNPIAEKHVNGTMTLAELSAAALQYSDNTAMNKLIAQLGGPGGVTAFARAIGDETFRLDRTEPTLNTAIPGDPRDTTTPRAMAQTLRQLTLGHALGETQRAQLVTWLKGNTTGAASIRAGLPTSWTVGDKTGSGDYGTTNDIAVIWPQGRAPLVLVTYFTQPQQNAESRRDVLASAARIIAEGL

[5] = target: purified class A, C and D enzymes (β-lactamases) (Klebsiella pneumoniae, UniProt Q6XEC0); test: biochemical; type: biochemical; conditions: purified OXA-48; nitrocefin (NCF) as reporter substrate
[6] = target: purified class A, C and D enzymes (β-lactamases) (Klebsiella pneumoniae, UniProt Q9F663); test: biochemical; type: biochemical; conditions: purified KPC-2; nitrocefin (NCF) as reporter substrate
[7] = target: T2, purified class A, C and D enzymes (β-lactamases) (Pseudomonas aeruginosa, UniProt P24735); test: biochemical; type: biochemical
T2 construct: rows headed: Ki (Pa-AmpC, NCF), uM; other: purified Pa-AmpC; nitrocefin (NCF) as reporter substrate
T2 sequence (P24735 whole entry): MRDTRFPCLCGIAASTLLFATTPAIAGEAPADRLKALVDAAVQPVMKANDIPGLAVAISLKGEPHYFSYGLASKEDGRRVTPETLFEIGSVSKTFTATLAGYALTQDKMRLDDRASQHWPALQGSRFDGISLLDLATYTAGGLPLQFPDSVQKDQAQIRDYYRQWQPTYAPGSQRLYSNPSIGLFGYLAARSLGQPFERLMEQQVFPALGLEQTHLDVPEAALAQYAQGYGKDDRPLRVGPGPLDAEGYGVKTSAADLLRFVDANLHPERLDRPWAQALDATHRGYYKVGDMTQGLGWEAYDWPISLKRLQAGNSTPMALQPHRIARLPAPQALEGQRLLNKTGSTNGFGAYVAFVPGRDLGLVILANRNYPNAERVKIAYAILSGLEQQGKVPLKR

ECL1002 = test: Aztreonam potentiation (MPC@4), strain ECL1002; conditions: minimum BLI concentration inhibiting growth with aztreonam 4 μg/mL; tested up to 40 μg/mL
ec308 SHV-5 = test: Aztreonam potentiation (MPC@4), strain ec308 SHV-5; conditions: minimum BLI concentration inhibiting growth with aztreonam 4 μg/mL; tested up to 40 μg/mL
ec302 TEM-10 = test: Aztreonam potentiation (MPC@4), strain ec302 TEM-10; conditions: minimum BLI concentration inhibiting growth with aztreonam 4 μg/mL; tested up to 40 μg/mL
KP1004 KPC-2 [8] = test: Aztreonam potentiation (MPC@4), strain KP1004 KPC-2; conditions: minimum BLI concentration inhibiting growth with aztreonam 4 μg/mL; tested up to 40 μg/mL
EC1010 CMY-6 = test: Aztreonam potentiation (MPC@4), strain EC1010 CMY-6; conditions: minimum BLI concentration inhibiting growth with aztreonam 4 μg/mL; tested up to 40 μg/mL
KP1010 SHV-12 = test: Aztreonam potentiation (MPC@4), strain KP1010 SHV-12; conditions: minimum BLI concentration inhibiting growth with aztreonam 4 μg/mL; tested up to 40 μg/mL
KP1009 CTX-M-15 = test: Aztreonam potentiation (MPC@4), strain KP1009 CTX-M-15; conditions: minimum BLI concentration inhibiting growth with aztreonam 4 μg/mL; tested up to 40 μg/mL
KP1005 CTX-M-14 = test: Tigemonam potentiation (MPC@4), strain KP1005 CTX-M-14; conditions: minimum BLI concentration inhibiting growth with tigemonam 4 μg/mL; tested up to 40 μg/mL

Row | SMILES | BPM MPC1 KP1004 KPC-2 (KP1004 KPC-2 [1]) | BPM MPC1 OXA-48 KP1086 (KP1086 OXA-48) | MPM MPC8 AB1053 OXA-72 (AB1053 OXA-72) | MPM MPC8 AB1054 OXA-23 (AB1054 OXA-23) | pKi [2] | Ki (P99, NCF), uM [3] | Ki (CTX-M-14, NCF), uM [4] | Ki (OXA-48, NCF), uM [5] | Ki (KPC-2, NCF), uM [6] | pKi [7] | AZT MPC4 ECL1002 (ECL1002) | AZT MPC4 SHV-5 ec308 (ec308 SHV-5) | AZT MPC4 TEM-10 ec302 (ec302 TEM-10) | AZT MPC4 KPC-2 KP1004 (KP1004 KPC-2 [8]) | AZT MPC4 CMY-6 EC1010 (EC1010 CMY-6) | AZT MPC4 SHV-12 KP1010 (KP1010 SHV-12) | AZT MPC4 CTX-M-15 KP1009 (KP1009 CTX-M-15) | TIG MPC4 CTX-M-14 KP1005 (KP1005 CTX-M-14) | Ki (P99, NCF), uM ([3]; purified P99, nitrocefin (NCF) as reporter substrate) | pKi ([7]; purified Pa-AmpC, nitrocefin (NCF) as reporter substrate, read-out: Ki (Pa-AmpC, NCF))
1 | O=C([O-])c1c(O)ccc2c1O[B-](O)(O)CC2.[Na+].[Na+] [Compound 42, Disodium; 4,4,8-trihydroxy-5-oxa-4-boranuidabicyclo[4.4.0]deca-1(6),7,9-triene-7-carboxylate] | X (X = MPC@1 ≤ 5 μg/mL) | X (X = MPC@1 ≤ 5 μg/mL) | Z (Z = MPC@1 > 20 μg/mL) | Z (Z = MPC@1 > 20 μg/mL) | 6.00 to 7.00 | Y (key: X = Ki ≤ 0.1 μM; Y = 0.1 μM < Ki ≤ 1 μM; Z = Ki > 1 μM) | X (X = Ki ≤ 0.1 μM) | X (X = Ki ≤ 0.1 μM) | X (X = Ki ≤ 0.1 μM) | 6.00 to 7.00 | Z (Z = MPC@4 > 20 μg/mL) | Y (Y = 5 μg/mL < MPC@4 ≤ 20 μg/mL) | Y (Y = 5 μg/mL < MPC@4 ≤ 20 μg/mL) | Y (Y = 5 μg/mL < MPC@4 ≤ 20 μg/mL) | Z (Z = MPC@4 > 20 μg/mL) | X (X = MPC@4 ≤ 5 μg/mL) | Z (Z = MPC@4 > 20 μg/mL) | Z (Z = MPC@4 > 20 μg/mL) | – | –
2 | COc1ccc2c(c1C(=O)[O-])O[B-](O)(O)[C@@H](C)C2.[Na+].[Na+] [Compound 11, Disodium; (3S)-4,4-dihydroxy-8-methoxy-3-methyl-5-oxa-4-boranuidabicyclo[4.4.0]deca-1(6),7,9-triene-7-carboxylate] | X (X = MPC@1 ≤ 5 μg/mL) | Y (Y = 5 μg/mL < MPC@1 ≤ 20 μg/mL) | X (X = MPC@1 ≤ 5 μg/mL) | Y (Y = 5 μg/mL < MPC@1 ≤ 20 μg/mL) | > 7.00 | X (key: X = Ki ≤ 0.1 μM; Y = 0.1 μM < Ki ≤ 1 μM; Z = Ki > 1 μM) | X (X = Ki ≤ 0.1 μM) | X (X = Ki ≤ 0.1 μM) | X (X = Ki ≤ 0.1 μM) | > 7.00 | Y (Y = 5 μg/mL < MPC@4 ≤ 20 μg/mL) | Y (Y = 5 μg/mL < MPC@4 ≤ 20 μg/mL) | Y (Y = 5 μg/mL < MPC@4 ≤ 20 μg/mL) | Y (Y = 5 μg/mL < MPC@4 ≤ 20 μg/mL) | X (X = MPC@4 ≤ 5 μg/mL) | Y (Y = 5 μg/mL < MPC@4 ≤ 20 μg/mL) | Y (Y = 5 μg/mL < MPC@4 ≤ 20 μg/mL) | Z (Z = MPC@4 > 20 μg/mL) | – | –
3 | O=C([O-])c1cncc2c1O[B-](O)(O)CC2.[Na+].[Na+] [Compound 59, Disodium; 4,4-dihydroxy-5-oxa-9-aza-4-boranuidabicyclo[4.4.0]deca-1(6),7,9-triene-7-carboxylate] | X (X = MPC@1 ≤ 5 μg/mL) | X (X = MPC@1 ≤ 5 μg/mL) | Y (Y = 5 μg/mL < MPC@1 ≤ 20 μg/mL) | Z (Z = MPC@1 > 20 μg/mL) | < 6.00 | Z (key: X = Ki ≤ 0.1 μM; Y = 0.1 μM < Ki ≤ 1 μM; Z = Ki > 1 μM) | X (X = Ki ≤ 0.1 μM) | X (X = Ki ≤ 0.1 μM) | X (X = Ki ≤ 0.1 μM) | 6.00 to 7.00 | Z (Z = MPC@4 > 20 μg/mL) | Y (Y = 5 μg/mL < MPC@4 ≤ 20 μg/mL) | X (X = MPC@4 ≤ 5 μg/mL) | X (X = MPC@4 ≤ 5 μg/mL) | Y (Y = 5 μg/mL < MPC@4 ≤ 20 μg/mL) | X (X = MPC@4 ≤ 5 μg/mL) | Y (Y = 5 μg/mL < MPC@4 ≤ 20 μg/mL) | Z (Z = MPC@4 > 20 μg/mL) | – | –
4 | NCCCSCc1ccc2c(c1C(=O)[O-])O[B-](O)(O)CC2.[Na+].[Na+] [Compound 21, Disodium; 8-(3-aminopropylsulfanylmethyl)-4,4-dihydroxy-5-oxa-4-boranuidabicyclo[4.4.0]deca-1(6),7,9-triene-7-carboxylate] | X (X = MPC@1 ≤ 5 μg/mL) | X (X = MPC@1 ≤ 5 μg/mL) | X (X = MPC@1 ≤ 5 μg/mL) | X (X = MPC@1 ≤ 5 μg/mL) | > 7.00 | X (key: X = Ki ≤ 0.1 μM; Y = 0.1 μM < Ki ≤ 1 μM; Z = Ki > 1 μM) | X (X = Ki ≤ 0.1 μM) | X (X = Ki ≤ 0.1 μM) | X (X = Ki ≤ 0.1 μM) | > 7.00 | Y (Y = 5 μg/mL < MPC@4 ≤ 20 μg/mL) | Y (Y = 5 μg/mL < MPC@4 ≤ 20 μg/mL) | Y (Y = 5 μg/mL < MPC@4 ≤ 20 μg/mL) | X (X = MPC@4 ≤ 5 μg/mL) | X (X = MPC@4 ≤ 5 μg/mL) | X (X = MPC@4 ≤ 5 μg/mL) | Y (Y = 5 μg/mL < MPC@4 ≤ 20 μg/mL) | Z (Z = MPC@4 > 20 μg/mL) | – | –
5 | CS(=O)(=O)c1ccc2c(c1C(=O)O)OB(O)CC2 [Compound 39, 2-Hydroxy-7-methylsulfonyl-3,4-dihydro-1,2-benzoxaborinine-8-carboxylic acid] | X (X = MPC@1 ≤ 5 μg/mL) | X (X = MPC@1 ≤ 5 μg/mL) | X (X = MPC@1 ≤ 5 μg/mL) | X (X = MPC@1 ≤ 5 μg/mL) | > 7.00 | – | X (X = Ki ≤ 0.1 μM) | X (X = Ki ≤ 0.1 μM) | X (X = Ki ≤ 0.1 μM) | – | X (X = MPC@4 ≤ 5 μg/mL) | X (X = MPC@4 ≤ 5 μg/mL) | X (X = MPC@4 ≤ 5 μg/mL) | X (X = MPC@4 ≤ 5 μg/mL) | X (X = MPC@4 ≤ 5 μg/mL) | X (X = MPC@4 ≤ 5 μg/mL) | X (X = MPC@4 ≤ 5 μg/mL) | Y (Y = 5 μg/mL < MPC@4 ≤ 20 μg/mL) | X (X = Ki ≤ 0.1 μM) | > 7.00
6 | O=C([O-])c1c(OCC(F)F)ccc2c1O[B-](O)(O)CC2.[Na+].[Na+] [Compound 29, Disodium; 8-(2,2-difluoroethoxy)-4,4-dihydroxy-5-oxa-4-boranuidabicyclo[4.4.0]deca-1(6),7,9-triene-7-carboxylate] | X (X = MPC@1 ≤ 5 μg/mL) | X (X = MPC@1 ≤ 5 μg/mL) | X (X = MPC@1 ≤ 5 μg/mL) | Y (Y = 5 μg/mL < MPC@1 ≤ 20 μg/mL) | > 7.00 | X (key: X = Ki ≤ 0.1 μM; Y = 0.1 μM < Ki ≤ 1 μM; Z = Ki > 1 μM) | X (X = Ki ≤ 0.1 μM) | X (X = Ki ≤ 0.1 μM) | X (X = Ki ≤ 0.1 μM) | > 7.00 | X (X = MPC@4 ≤ 5 μg/mL) | X (X = MPC@4 ≤ 5 μg/mL) | Y (Y = 5 μg/mL < MPC@4 ≤ 20 μg/mL) | X (X = MPC@4 ≤ 5 μg/mL) | X (X = MPC@4 ≤ 5 μg/mL) | X (X = MPC@4 ≤ 5 μg/mL) | Y (Y = 5 μg/mL < MPC@4 ≤ 20 μg/mL) | Y (Y = 5 μg/mL < MPC@4 ≤ 20 μg/mL) | – | –
